Test results as given in patent US9085555B2, “Complement pathway modulators and uses thereof” (priority 2011, dated 2015).

Biological target: Factor D (Homo sapiens (Human), UniProt P00746)
Experiment: biochemical
Assay type: biochemical
Conditions: read-out: IC50

Chain of Factor D (P00746 26-253): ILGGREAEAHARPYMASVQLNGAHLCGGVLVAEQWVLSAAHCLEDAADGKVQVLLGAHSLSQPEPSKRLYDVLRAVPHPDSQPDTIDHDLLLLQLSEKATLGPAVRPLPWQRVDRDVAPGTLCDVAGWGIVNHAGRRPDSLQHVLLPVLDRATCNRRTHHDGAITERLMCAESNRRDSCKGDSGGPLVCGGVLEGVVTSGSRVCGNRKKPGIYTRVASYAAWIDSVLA

| Compound | IC50 |
| --- | --- |
| CC[C@@H]1CC[C@@H](C(=O)Nc2cccc(OC(F)(F)F)c2)N1C(=O)Nc1cn(C(N)=O)c2ccccc12 [Example 338, (2S,5R)-5-Ethyl-pyrrolidine-1,2-dicarboxylic acid 1-[(1-carbamoyl-1H-indol-3-yl)-amide]2-[(3-trifluoromthoxy-phenyl)-amide]] | 18.9 µM |
| CC(=O)c1cn(CC(=O)N2[C@@H]3C[C@@H]3C[C@H]2C(=O)NCc2cccc(Cl)c2F)c2nnccc12 [Example 655, (1R,3S,5R)-2-[2-(5-Acetyl-pyrrolo[2,3-c]pyridazin-7-yl)-acetyl]-2-aza-bicyclo [3.1.0]hexane-3-carboxylic acid 3-chloro-2-fluoro-benzylamide] | 0.091 µM |
| CC(=O)c1cn(CC(=O)N2C[C@H](F)C[C@H]2C(=O)NCc2cc(C(=O)O)cc(Cl)c2F)c2ccccc12 [Example 605, 3-[({(2S,4R)-1-[2-(3-Acetyl-indol-1-yl)-acetyl]-4-fluoro-pyrrolidine-2-carbonyl}-amino)-methyl]-5-chloro-4-fluoro-benzoic acid] | 0.054 µM |
| CC(=O)c1cn(CC(=O)N2C[C@](C)(F)C[C@H]2C(=O)NCc2cccc(Cl)c2F)c2cc(C(=O)O)ccc12 [Example 599, 3-Acetyl-1-{2-[(2S,4R)-2-(3-chloro-2-fluoro-benzylcarbamoyl)-4-fluoro-4-methyl-pyrrolidin-1-yl]-2-oxo-ethyl}-1H-indole-6-carboxylic acid] | 0.046 µM |
| NC(=O)c1nn(CC(=O)N2[C@@H]3C[C@@H]3C[C@H]2C(=O)Nc2cccc(C3CC3)c2F)c2ccccc12 [Example 674, 1-{2-[(1R,3S,5R)-3-(3-Cyclopropyl-2-fluoro-phenylcarbamoyl)-2-aza-bicyclo[3.2.1]hex-2-yl]-2-oxo-ethyl}-1H-indazole-3-carboxylic acid amide] | 0.075 µM |
| NC(=O)n1cc(NC(=O)N2C[C@@H](N)C[C@H]2C(=O)NC2CCc3ccc(Cl)cc32)c2ccccc21 (stereo partly drawn) [Example 79, (2S,4S)-4-Amino-pyrrolidine-1,2-dicarboxylic acid 1-[(1-carbamoyl-1H-indol-3-yl)-amide] 2-[(6-chloro-indan-1-yl)-amide]] | 6 µM |
| NC(=O)n1cc(NC(=O)N2C3CC3C[C@H]2C(=O)NCc2ncccc2F)c2ccccc21 (stereo partly drawn) [Example 242] | 0.2 µM |
| Cc1ccc(CNC(=O)[C@@H]2C[C@H](N)CN2C(=O)Nc2cn(C(N)=O)c3ccccc23)cc1Cl [Example 59, (2S,4S)-4-Amino-pyrrolidine-1,2-dicarboxylic acid 1-[(1-carbamoyl-1H-indol-3-yl)-amide] 2-(3-chloro-4-methyl-benzylamide)] | 6.4 µM |
| NC(=O)n1cc(NC(=O)N2CCS[C@H]2C(=O)NCc2cccc(F)c2F)c2ccccc21 [Example 169, (S)-Thiazolidine-2,3-dicarboxylic acid 3-[(1-carbamoyl-1H-indol-3-yl)-amide] 2-(2,3-difluoro-benzylamide)] | 0.268 µM |
| NC(=O)n1cc(NC(=O)N2CCC[C@H]2C(=O)Nc2cc(-c3ccccc3)no2)c2ccccc21 [Example 440, (S)-Pyrrolidine-1,2-dicarboxylic acid 1-[(1-carbamoyl-1H-indol-3-yl)-amide]2-[(3-phenyl-isoxazol-5-yl)-amide]] | 1.05 µM |
| COC(=O)c1ccc2c(C(C)=O)cn(CC(=O)N3[C@@H]4C[C@@H]4C[C@H]3C(=O)NCc3cccc(Cl)c3F)c2n1 [Example 689, 3-Acetyl-1-{2-[(1R,3S,5R)-3-(3-chloro-2-fluoro-benzylcarbamoyl)-2-aza-bicyclo[3.1.0]hex-2-yl]-2-oxo-ethyl}-1H-pyrrolo[2,3-b] pyridine-6-carboxylic acid methyl ester] | 0.156 µM |
| NC(=O)n1cc(CC(=O)N2[C@@H]3C[C@@H]3C[C@H]2C(=O)NCc2cccc(Cl)c2F)c2cc(OCCO)ccc21 [Example 453, 3-{2-[(1R,3S,5R)-3-(3-Chloro-2-fluoro-benzylcarbamoyl)-2-aza-bicyclo[3.1.0]hex-2-yl]-2-oxo-ethyl}-5-(2-hydroxy-ethoxy)-indole-1-carboxylic acid amide] | 0.013 µM |
| NC(=O)n1cc(NC(=O)N2C[C@@H](N)C[C@H]2C(=O)NC(c2ccccc2)c2ccccc2)c2ccccc21 [Example 73, (2S,4S)-4-Amino-pyrrolidine-1,2-dicarboxylic acid 2-benzhydryl-amide 1-[(1-carbamoyl-1H-indol-3-yl)-amide]] | 0.325 µM |
| Cc1cnc(CNC(=O)[C@@H]2C[C@H](N)CN2C(=O)Nc2cn(C(N)=O)c3ccccc23)s1 [Example 65, (2S,4S)-4-Amino-pyrrolidine-1,2-dicarboxylic acid 1-[(1-carbamoyl-1H-indol-3-yl)-amide] 2-[(5-methyl-thiazol-2-ylmethyl)-amide]] | 13.1 µM |
| CC(C)(C)c1cccc(NC(=O)[C@@H]2CC3CC3N2C(=O)Nc2cn(C(N)=O)c3ccccc23)c1 (stereo partly drawn) [Example 330, (1R,3S,5R)-2-Aza-bicyclo[3.1.0]hexane-2,3-dicarboxylic acid 3-[(3-tert-butyl-phenyl)-amide] 2-[(1-carbamoyl-1H-indol-3-yl)-amide]] | 0.25 µM |
| COc1ccc2c(C(C)=O)cn(CC(=O)N3C[C@H](F)C[C@H]3C(=O)NCc3cccc(Cl)c3F)c2c1 [Example 500, (2S,4R)-1-[2-(3-Acetyl-6-methoxy-indol-1-yl)-acetyl]-4-fluoro-pyrrolidine-2-carboxylic acid 3-chloro-2-fluoro-benzylamide] | 0.036 µM |
| NC(=O)n1cc(NC(=O)N2C[C@@H](N)C[C@H]2C(=O)NCCc2cc(F)cc(Cl)c2)c2ccccc21 [Example 90, (2S,4S)-4-Amino-pyrrolidine-1,2-dicarboxylic acid 1-[(1-carbamoyl-1H-indol-3-yl)-amide] 2-{[2-(3-chloro-5-fluoro-phenyl)-ethyl]-amide}] | 1.15 µM |
| 2S,3R)-3-Acetylamino-pyrrolidine-1,2-dicarboxylic acid 1-[(1-carbamoyl-1H-indol-3-yl)-amide]2-(3-chloro-2-fluoro-benzylamide [Example 422] | 0.888 µM |
| CC(=O)c1cn(CC(=O)N2C[C@@H]3C[C@@H]3[C@H]2C(=O)N[C@H](CO)c2cccc(Cl)c2F)c2ccccc12 [Example 612, (1S,2S,5R)-3-[2-(3-Acetyl-indol-1-yl)-acetyl]-3-aza-bicyclo[3.1.0]hexane-2-carboxylic acid [(S)-1-(3-chloro-2-fluoro-phenyl)-2hydroxy-ethyl]-amide] | 3.43 µM |
| CO[C@H]1[C@@H](C(=O)NC2(c3cccc(Cl)c3F)CC2)N(C(=O)Cn2nc(C(N)=O)c3cccnc32)C[C@@H]1F [Example 659, 1-(2-{(2S,3S,4S)-2-[1-(3-Chloro-2-fluoro-phenyl)-cyclopropylcarbamoyl]-4-fluoro-3-methoxy-pyrrolidin-1-yl}-2-oxo-ethyl)-1H-pyrazolo[3,4-b]pyridine-3-carboxylic acid amide] | 0.025 µM |
| NC(=O)n1cc(NC(=O)N2C[C@H](F)C[C@H]2C(=O)NCc2cccc(C(F)(F)F)c2F)c2ccccc21 [Example 222, (2S,4R)-4-Fluoro-pyrrolidine-1,2-dicarboxylic acid 1-[(1-carbamoyl-1H-indol-3-yl)-amide] 2-(2-fluoro-3-trifluoromethyl-benzylamide)] | 0.137 µM |
| NC(=O)n1cc(NC(=O)N2[C@@H]3C[C@@H]3C[C@H]2C(=O)NCc2ccccc2)c2ccccc21 [Example 258, (1R,3S,5R)-2-Aza-bicyclo[3.1.0]hexane-2,3-dicarboxylic acid 3-benzylamide 2-[(1-carbamoyl-1H-indol-3-yl)-amide]] | 0.078 µM |
| C[C@@H](NC(=O)[C@@H]1C[C@@H](F)CN1C(=O)Cn1nc(C(N)=O)c2ccncc21)c1cccc(Cl)c1F [Example 690, 1-(2-{(2S,4R)-2-[(R)-1-(3-Chloro-2-fluoro-phenyl)-ethylcarbamoyl]-4-fluoro-pyrrolidin-1-yl}-2-oxo-ethyl)-1H-pyrazolo[3,4-c]pyridine-3-carboxylic acid amide] | 0.034 µM |
| C[C@@H](NC(=O)[C@@H]1[C@H](O)CCN1C(=O)Nc1cn(C(N)=O)c2ccccc12)c1cccc(Cl)c1F (single isomer, unassigned) [Example 364] | 0.9 µM |
| NC(=O)n1cc(NC(=O)N2C[C@@H](N)C[C@H]2C(=O)NCCc2cccc(F)c2)c2ccccc21 [Example 89, (2S,4S)-4-Amino-pyrrolidine-1,2-dicarboxylic acid 1-[(1-carbamoyl-1Hindol-3-yl)-amide] 2-{[2-(3-fluoro-phenyl)-ethyl]-amide}] | 7.7 µM |
| NC(=O)n1cc(NC(=O)N2C[C@@H](N)C[C@H]2C(=O)NC2CCOc3ccc(Cl)cc32)c2ccccc21 (stereo partly drawn) [Example 80, (2S,4S)-4-Amino-pyrrolidine-1,2-dicarboxylic acid 1-[(1-carbamoyl-1H-indol-3-yl)-amide] 2-[(6-chloro-chroman-4-yl)-amide]] | 15 µM |
| COC1(OC)C[C@@H](C(=O)NCc2cccc(Cl)c2F)N(C(=O)Nc2cn(C(N)=O)c3ccccc23)C1 [Example 428, S)-4,4-Dimethoxy-pyrrolidine-1,2-dicarboxylic acid 1-[(1-carbamoyl-1H-indol-3-yl)-amide]2-(3-chloro-2-fluoro-benzylamide] | 0.478 µM |
| CC(=O)c1cn(CC(=O)N2[C@@H]3C[C@@H]3C[C@H]2C(=O)NCc2cccc(Cl)c2F)c2cnccc12 [Example 550, (1R,3S,5R)-2-[2-(3-Acetyl-pyrrolo[2,3-c]pyridin-1-yl)-acetyl]-2-aza-bicyclo[3.1.0]hexane-3-carboxylic acid 3-chloro-2-fluorobenzylamide] | 0.033 µM |
| NC(=O)n1cc(NC(=O)N2C[C@@](F)(CN3CCOCC3)C[C@H]2C(=O)NCc2cccc(Cl)c2F)c2ccccc21 [Example 243, (2S,4S)-4-Fluoro-4-morpholin-4-ylmethyl-pyrrolidine-1,2-dicarboxylic acid 1-[(1-carbamoyl-1H-indol-3-yl)-amide] 2-(3-chloro-2-fluoro-benzylamide)] | 0.2 µM |
| NC(=O)n1cc(NC(=O)N2C[C@@H](N)C[C@H]2C(=O)NCc2cccc(OC(F)(F)F)c2)c2ccccc21 [Example 37, (2S,4S)-4-Amino-pyrrolidine-1,2-dicarboxylic acid 1-[(1-carbamoyl-1H-indol-3-yl)-amide] 2-(3-trifluoromethoxy-benzylamide)] | 22 µM |
